Measured values published in patent publication US20210221832A1, “SUBSTITUTED PYRIDOINDOLES FOR THE TREATMENT AND PROPHYLAXIS OF BACTERIAL INFECTION” (Hoffmann-La Roche Inc., priority 2018, published 2021).
Values after ≈ are worked out from the molar mass of the structure shown.

experiment: Plasma stability assay in mouse plasma; format: in vitro ADME, CD-1 mouse; settings: 10 μM prodrug, 37° C., prodrug remaining at 30 min compared to 0 min
Protocol: (§1) The degradation of prodrug and formation of active drug of present invention were monitored by current plasma stability assay. The assay is conducted in human plasma (purchased from Bioreclamation, Lot No. BRH1380385) or mouse plasma (prepared in-house using CD-1 mouse purchased from Vital River). Plasma is spiked with the test prodrug (10 μM final concentration) dissolved in DMSO (or water) and incubated at 37° C. Aliquots are removed at 0, 5, 15 and 30 minutes of incubation time, quenched with appropriate volume of internal standard solution (I.S., 0.2 μM of tolbutamide, prepared in ACN and water (1:1, v/v)), according to the mass spectrometer intensity of both analytes. Samples are centrifuged, the supernatant are removed and analyzed by LC-MS/MS. The degradation of prodrug was illustrated by calculation of percent remaining of prodrug at 30 min compared to that at 0 min (Table 2).

Percent Remaining (%) M [%] | SMILES
0.6 | CNc1cc(F)c(C#N)c2c1[nH]c1ncc(-c3cnc4c(c3)c(=O)c(C(=O)OCc3oc(=O)oc3C)cn4C)c(N3CC[C@H]4CN(C)C[C@H]43)c12 [Example 1.13, (5-Methyl-2-oxo-1,3-dioxol-4-yl)methyl 6-[5-cyano-6-fluoro-8-(methylamino)-4-[(3aS,6aS)-5-methyl-2,3,3a,4,6,6a-hexahydropyrrolo[2,3-c]pyrrol-1-yl]-9H-pyrido[2,3-b]indol-3-yl]-1-methyl-4-oxo-1,8-naphthyridine-3-carboxylate]
72.0 | CN1C[C@H]2CCN(c3c(-c4cnc5c(c4)c(=O)c(C(=O)O)cn5C)cnc4[nH]c5c(N(C)C(=O)OCOP(=O)(O)O)cc(F)c(F)c5c34)[C@H]2C1 [Example 1.18, 6-[5,6-Difluoro-8-[methyl(phosphonooxymethoxycarbonyl)amino]-4-[(3aR,6aR)-5-methyl-2,3,3a,4,6,6a-hexahydropyrrolo[2,3-c]pyrrol-1-yl]-9H-pyrido[2,3-b]indol-3-yl]-1-methyl-4-oxo-1,8-naphthyridine-3-carboxylic acid]

SMILES | Percent Remaining (%) M [%]
CC(=O)OC(C)OC(=O)N(C)c1cc(F)c(C#N)c2c1[nH]c1ncc(-c3cnc4c(c3)c(=O)c(C(=O)O)cn4C)c(N3CC[C@H]4CN(C)C[C@H]43)c12 (stereo partly drawn) [Example 1.15, 6-[8-[1-Acetoxyethoxycarbonyl(methyl)amino]-5-cyano-6-fluoro-4-[(3aS,6aS)-5-methyl-2,3,3a,4,6,6a-hexahydropyrrolo[2,3-c]pyrrol-1-yl]-9H-pyrido[2,3-b]indol-3-yl]-1-methyl-4-oxo-1,8-naphthyridine-3-carboxylic acid] | 4.7

experiment: Plasma stability assay in human plasma; format: in vitro ADME; settings: 10 μM prodrug, 37° C., prodrug remaining at 30 min compared to 0 min
Protocol: as §1

Percent Remaining (%) H [%] | SMILES
1.9 | CNc1cc(F)c(C#N)c2c1[nH]c1ncc(-c3cnc4c(c3)c(=O)c(C(=O)OCc3oc(=O)oc3C)cn4C)c(N3CC[C@H]4CN(C)C[C@H]43)c12 [Example 1.13, (5-Methyl-2-oxo-1,3-dioxol-4-yl)methyl 6-[5-cyano-6-fluoro-8-(methylamino)-4-[(3aS,6aS)-5-methyl-2,3,3a,4,6,6a-hexahydropyrrolo[2,3-c]pyrrol-1-yl]-9H-pyrido[2,3-b]indol-3-yl]-1-methyl-4-oxo-1,8-naphthyridine-3-carboxylate]
67.2 | CN1C[C@H]2CCN(c3c(-c4cnc5c(c4)c(=O)c(C(=O)O)cn5C)cnc4[nH]c5c(N(C)C(=O)OCOP(=O)(O)O)cc(F)c(F)c5c34)[C@H]2C1 [Example 1.18, 6-[5,6-Difluoro-8-[methyl(phosphonooxymethoxycarbonyl)amino]-4-[(3aR,6aR)-5-methyl-2,3,3a,4,6,6a-hexahydropyrrolo[2,3-c]pyrrol-1-yl]-9H-pyrido[2,3-b]indol-3-yl]-1-methyl-4-oxo-1,8-naphthyridine-3-carboxylic acid]

SMILES | Percent Remaining (%) H [%]
CC(=O)OC(C)OC(=O)N(C)c1cc(F)c(C#N)c2c1[nH]c1ncc(-c3cnc4c(c3)c(=O)c(C(=O)O)cn4C)c(N3CC[C@H]4CN(C)C[C@H]43)c12 (stereo partly drawn) [Example 1.15, 6-[8-[1-Acetoxyethoxycarbonyl(methyl)amino]-5-cyano-6-fluoro-4-[(3aS,6aS)-5-methyl-2,3,3a,4,6,6a-hexahydropyrrolo[2,3-c]pyrrol-1-yl]-9H-pyrido[2,3-b]indol-3-yl]-1-methyl-4-oxo-1,8-naphthyridine-3-carboxylic acid] | 50.5

experiment: Lyophilisation Solubility Assay (LYSA); format: physicochemical; settings: aqueous buffer, thermodynamic from solid; 0.05 M phosphate buffer, pH 6.5
Protocol: The solubility of compounds of present invention was assessed by LYSA assay. Samples were prepared in duplicate from 10 mM DMSO stock solutions (20 μL) diluted in 30 μL pure DMSO. After evaporation of DMSO with a centrifugal vacuum evaporator, the residue was dissolved in 0.05 M phosphate buffer (150 μL, pH 6.5), which was stirred for one hour and shook for two hours. After one night, the solution was filtered using a microtiter filter plate. Then the filtrate and its 1/10 dilution were analyzed by HPLC-UV. In addition, a four-point calibration curve was prepared from the 10 mM stock solutions and used for the solubility determination of the compounds.

SMILES | solubility [µg/mL]
CN1C[C@@H]2CCN(c3c(-c4ccc5ccc(C(=O)O)c(=O)n5c4)cnc4[nH]c5c(N(C)C(=O)OCOP(=O)(O)O)cc(F)c(F)c5c34)[C@@H]2C1 [Example 1.32, 7-[5,6-Difluoro-8-[methyl(phosphonooxymethoxycarbonyl)amino]-4-[(3aS,6aS)-5-methyl-2,3,3a,4,6,6a-hexahydropyrrolo[2,3-c]pyrrol-1-yl]-9H-pyrido[2,3-b]indol-3-yl]-4-oxo-quinolizine-3-carboxylic acid] | > 875
CN1C[C@@H]2CCN(c3c(-c4ccc5ccc(C(=O)O)c(=O)n5c4)cnc4[nH]c5c(N(C)C(=O)OCOC(=O)/C=C/C(=O)O)cc(F)c(F)c5c34)[C@@H]2C1 [Example 1.33, 7-[5,6-Difluoro-8-[methyl-[[(E)-3-carboxyprop-2-enoyl]oxymethoxycarbonyl]amino]-4-[(3aS,6aS)-5-methyl-2,3,3a,4,6,6a-hexahydropyrrolo[2,3-c]pyrrol-1-yl]-9H-pyrido[2,3-b]indol-3-yl]-4-oxo-quinolizine-3-carboxylic acid] | 680 (≈ 949 µM)
CN1C[C@@H]2CCN(c3c(-c4ccc5ccc(C(=O)O)c(=O)n5c4)cnc4[nH]c5c(N(C)C(=O)CNC(=O)CNC(=O)CN)cc(F)c(F)c5c34)[C@@H]2C1 [Example 1.34, 7-[8-[[2-[[2-[(2-Aminoacetyl)amino]acetyl]amino]acetyl]-methyl-amino]-5,6-difluoro-4-[(3aS,6aS)-5-methyl-2,3,3a,4,6,6a-hexahydropyrrolo[2,3-c]pyrrol-1-yl]-9H-pyrido[2,3-b]indol-3-yl]-4-oxo-quinolizine-3-carboxylic acid] | > 930
CN1C[C@@H]2CCN(c3c(-c4ccc5ccc(C(=O)O)c(=O)n5c4)cnc4[nH]c5c(N(C)C(=O)CNC(=O)CN)cc(F)c(F)c5c34)[C@@H]2C1 [Example 1.35, 7-[8-[[2-[(2-Aminoacetyl)amino]acetyl]-methyl-amino]-5,6-difluoro-4-[(3aS,6aS)-5-methyl-2,3,3a,4,6,6a-hexahydropyrrolo[2,3-c]pyrrol-1-yl]-9H-pyrido[2,3-b]indol-3-yl]-4-oxo-quinolizine-3-carboxylic acid] | > 915
CNc1cc(F)c(F)c2c3c(N4CC[C@H]5CN(C)C[C@H]54)c(-c4ccc5ccc(C(=O)O)c(=O)n5c4)cn(COP(=O)(O)O)c-3nc12 [Example 1.36, 7-[5,6-Difluoro-8-(methylamino)-1-(phosphonooxymethyl)-4-[(3aS,6aS)-5-methyl-2,3,3a,4,6,6a-hexahydropyrrolo[2,3-c]pyrrol-1-yl]pyrido[2,3-b]indol-3-yl]-4-oxo-quinolizine-3-carboxylic acid] | > 1000
CNc1cc(F)c(F)c2c1[nH]c1ncc(-c3ccc4ccc(C(=O)OCCOC(=O)[C@@H](N)C(C)C)c(=O)n4c3)c(N3CC[C@H]4CN(C)C[C@H]43)c12 [Example 1.37, 2-[(2S)-2-Amino-3-methyl-butanoyl]oxyethyl 7-[5,6-difluoro-8-(methylamino)-4-[(3aS,6aS)-5-methyl-2,3,3a,4,6,6a-hexahydropyrrolo[2,3-c]pyrrol-1-yl]-9H-pyrido[2,3-b]indol-3-yl]-4-oxo-quinolizine-3-carboxylate] | 315 (≈ 458 µM)

More lines, now with the values ahead:

solubility [µg/mL] | SMILES
> 595 | CN1C[C@@H]2CCN(c3c(-c4cnc5c(c4)c(=O)c(C(=O)O)cn5C)cnc4[nH]c5c(N(C)C(=O)OCOP(=O)(O)O)cc(F)c(C#N)c5c34)[C@@H]2C1 [Example 1.01, 6-[5-Cyano-6-fluoro-8-[methyl(phosphonooxymethoxycarbonyl)amino]-4-[(3aS,6aS)-5-methyl-2,3,3a,4,6,6a-hexahydropyrrolo[2,3-c]pyrrol-1-yl]-9H-pyrido[2,3-b]indol-3-yl]-1-methyl-4-oxo-1,8-naphthyridine-3-carboxylic acid]
> 730 | CN1C[C@@H]2CCN(c3c(-c4cnc5c(c4)c(=O)c(C(=O)O)cn5C)cnc4[nH]c5c(N(C)C=O)cc(F)c(C#N)c5c34)[C@@H]2C1 [Example 1.03, 6-[5-Cyano-6-fluoro-8-[formyl(methyl)amino]-4-[(3aS,6aS)-5-methyl-2,3,3a,4,6,6a-hexahydropyrrolo[2,3-c]pyrrol-1-yl]-9H-pyrido[2,3-b]indol-3-yl]-1-methyl-4-oxo-1,8-naphthyridine-3-carboxylic acid]
> 1060 | CNc1cc(F)c(C#N)c2c1[nH]c1ncc(-c3cnc4c(c3)c(=O)c(C(=O)O)cn4C)c(N3CC[C@H]4C[N+](C)(COP(=O)(O)O)C[C@H]43)c12 (stereo partly drawn) [Example 1.07, 6-[5-Cyano-6-fluoro-8-(methylamino)-4-[(3aS,6aS)-5-methyl-5-(phosphonooxymethyl)-2,3,3a,4,6,6a-hexahydropyrrolo[2,3-c]pyrrol-5-ium-1-yl]-9H-pyrido[2,3-b]indol-3-yl]-1-methyl-4-oxo-1,8-naphthyridine-3-carboxylic acid]
> 783 | CN1C[C@@H]2CCN(c3c(-c4cnc5c(c4)c(=O)c(C(=O)O)cn5C)cnc4[nH]c5c(N(C)C=O)cc(F)c(F)c5c34)[C@@H]2C1 [Example 1.26, 6-[5,6-Difluoro-8-[formyl(methyl)amino]-4-[(3aS,6aS)-5-methyl-2,3,3a,4,6,6a-hexahydropyrrolo[2,3-c]pyrrol-1-yl]-9H-pyrido[2,3-b]indol-3-yl]-1-methyl-4-oxo-1,8-naphthyridine-3-carboxylic acid]
> 685 | CN1C[C@@H]2CCN(c3c(-c4cnc5c(c4)c(=O)c(C(=O)O)cn5C)cnc4[nH]c5c(N(C)S(=O)(=O)O)cc(F)c(F)c5c34)[C@@H]2C1 [Example 1.27, 6-[5,6-Difluoro-8-[methyl(sulfo)amino]-4-[(3aS,6aS)-5-methyl-2,3,3a,4,6,6a-hexahydropyrrolo[2,3-c]pyrrol-1-yl]-9H-pyrido[2,3-b]indol-3-yl]-1-methyl-4-oxo-1,8-naphthyridine-3-carboxylic acid]
> 945 | CN1C[C@@H]2CCN(c3c(-c4cnc5c(c4)c(=O)c(C(=O)O)cn5C)cnc4[nH]c5c(N(C)C(=O)OCOC(=O)/C=C/C(=O)O)cc(F)c(F)c5c34)[C@@H]2C1 [Example 1.28, 6-[5,6-Difluoro-8-[methyl-[[(E)-3-carboxyprop-2-enoyl]oxymethoxycarbonyl]amino]-4-[(3aS,6aS)-5-methyl-2,3,3a,4,6,6a-hexahydropyrrolo[2,3-c]pyrrol-1-yl]-9H-pyrido[2,3-b]indol-3-yl]-1-methyl-4-oxo-1,8-naphthyridine-3-carboxylic acid]
595 (≈ 834 µM) | CN1C[C@@H]2CCN(c3c(-c4cnc5c(c4)c(=O)c(C(=O)O)cn5C)cnc4[nH]c5c(N(C)C(=O)OCOP(=O)(O)O)cc(F)c(F)c5c34)[C@@H]2C1 [Example 1.43, 6-[5,6-Difluoro-8-[methyl(phosphonooxymethoxycarbonyl)amino]-4-[(3aS,6aS)-5-methyl-2,3,3a,4,6,6a-hexahydropyrrolo[2,3-c]pyrrol-1-yl]-9H-pyrido[2,3-b]indol-3-yl]-1-methyl-4-oxo-1,8-naphthyridine-3-carboxylic acid]
